Assay results taken from patent US20260294880A1, “COMPOSITION FOR TREATING OTOTOXIC HEARING LOSS CAUSED BY AMINOGLYCOSIDE ANTIBIOTICS” (KYUNGPOOK NATIONAL UNIVERSITY INDUSTRY-ACADEMIC COOPERATION …, priority 2023, published 2026).

Legend:
Assay type in all cases: cell-based, ICR mice
[1] = test system: mitochondrial membrane potential of cochlear hair cells; experiment: JC-1 assay of mitochondrial membrane potential in cochlear explants; conditions: for red/green fluorescence ratio (mitochondrial membrane potential) after antibiotic treatment: KM, AK, or GM only
Protocol: (§1) Three-day-old ICR (Institute for Cancer Research) mice were purchased from Hyochang Science (Daegu, South Korea) for […]. Dissected cochleae were cultured in high-glucose Dulbecco's Modified Eagle's Medium (DMEM; Hyclone, Logan, UT, USA) containing 10% fetal bovine serum (Hyclone) and ampicillin (10 μg/mL; Life Technologies, Carlsbad, CA, USA) at 37° C. in a humidified atmosphere in the presence of 5% CO2. After 16 hours of culture, cochleae were first treated with 0.1 μM or 1 μM BC for 1 hour, followed by addition of one of three aminoglycoside antibiotics (1.2 mM KM, 3 mM AK, or 100 μM GM) to the culture medium. BC concentrations were optimized for each aminoglycoside (0.1 μM for KM, 1 μM for AK and GM).
The cationic fluorescent dye MitoProbe™ JC-1 (Invitrogen-Molecular Probes) was used to measure the mitochondrial membrane potential. After 30 hours of culture, the specimens were washed with PBS and stained with JC-1 (2 μM) for 2 hours at 37° C. in the presence of 5% CO2 in a darkroom. The sensitivity of the JC-1 assay was verified by adding 50 μM carbonyl [COMPOUND LEFT OUT] 3-chlorophenylhydrazone (CCCP) to untreated specimens before JC-1 staining, and then the specimens were cultured at 37° C. in the presence of 5% CO2 for 5 minutes for activation of CCCP. JC-1 fluorescence was split into red and green, and then the segmented images were converted to grayscale, followed by evaluation using ImageJ software (http://imageJ.nih.gov/ij/).

[2] = test system: mitochondrial reactive oxygen species (ROS) in cochlear hair cells; experiment: MitoSOX Red assay of mitochondrial ROS in cochlear explants
Protocol: as §1
To analyze AK or KM-induced mitochondrial oxidative stress, cochlear explants were examined by MitoSOX Red assay and JC-1 assay. Levels of mitochondrial reactive oxygen species (ROS) were detected by staining with 5 μM MitoSOX Red (Invitrogen-Molecular Probes) for 5 minutes in a humidified atmosphere at 37° C. in the presence of 5% CO2. The specimen was washed with PBS and visualized using a Zeiss Axio Imager A2 fluorescence microscope.

[3] = test system: IHCs and OHCs (cochlear hair cells); experiment: Quantification of surviving hair cells with V-shaped stereocilia in cochlear explants; conditions: for IHC survival / cytotoxicity to IHC: 3 mM AK, 1.2 mM KM, 100 μM GM, no BC
Protocol: as §1
(§2) To evaluate the morphology of inner hair cells (IHCs) and outer hair cells (OHCs) of the organ of Corti, the specimens were cultured for 48 hours and fixed with 4% paraformaldehyde (PFA, pH 7.4) in PBS for 15 minutes. After washing three times with PBS, a stereociliary bundle of explants was stained with Alexa Fluor 488-or 555-conjugated phalloidin (1:1,000; Invitrogen-Molecular Probes, Eugene, OR) in PBS for 1 hour at room temperature (RT). Specimens were mounted on glass slides using Fluoromount (Sigma-Aldrich, St. Louis, MO) and visualized using an Axio Imager A2 fluorescence microscope (Carl Zeiss, Oberkochen, Germany).
[Example 5] Quantification of hair cells and statistical analysis For quantitative analysis of hair cell damage, IHCs and OHCs with intact v-shaped […] were individually counted along a 200 μm length of basilar membrane in the apical (30%), middle (50%), and basal (70%) regions of each cochlear probe. All experiments were performed independently at least three times.

[4] = test system: inner hair cells (IHCs) and outer hair cells (OHCs) of the organ of Corti; experiment: Phalloidin staining of stereocilia / hair cell morphology in organotypic cochlear explants; conditions: for hair cell morphology / damage after antibiotic treatment / relative severity of damage, OHC versus IHC: cochlear explants, no BC; for hair cell morphology / damage after antibiotic treatment: 1.2 mM KM, 3 mM AK or 100 μM GM; for relative severity of damage, OHC versus IHC: 1.2 mM KM or 100 μM GM
Protocol: as §1, §2

[5] = test system: cleaved caspase-3 in organ of Corti; experiment: Immunohistochemistry for cleaved (active) caspase-3 in cochlear explants; conditions: for level of cleaved caspase-3 after antibiotic treatment: KM, AK, or GM versus untreated controls, no BC
Protocol: as §1
Immunohistochemistry and TUNEL assay for active caspase-3 were used to determine whether cell death in the organ of Corti occurred by apoptosis. Specimens were fixed with 4% PFA, kept permeabilized with 0.1% Triton X-100 in PBS (PBS-Tx) for 30 minutes at room temperature (RT), blocked with 5% normal goat serum for 1 hour at room temperature (RT), and cultured overnight with anti-caspase-3 antibody (1:1,000; Cell Signaling Technology, Bevery, MA) diluted in blocking solution.

[6] = test system: cells of the organ of Corti; experiment: TUNEL assay of apoptotic DNA fragmentation in cochlear explants; conditions: for apoptotic DNA fragmentation / cell death induced by antibiotic: KM, AK, or GM in mouse cochlea, no BC
Protocol: as §1
To detect DNA fragmentation leading to cell death, a TUNEL assay kit (Promega, Madison, WI) was used according to the manufacturer's protocol. Specimens were fixed with 4% paraformaldehyde in PBS for 15 minutes at room temperature (RT) and treated with 0.1% PBS-Tx in 0.1% sodium citrate for 30 minutes at 37° C. Fragmented DNA from cells was stained using TUNEL working solution at 37° C. for 30 minutes. F-actin was labeled with Alexa Fluor 555-conjugated phalloidin in PBS-Tx for 3 hours at room temperature (RT) in the dark and visualized using a Zeiss Axio Imager A2 fluorescence microscope.

reduction of cleaved caspase-3 ([5]; BC pre-treatment before antibiotics (KM, AK, GM)) | Molecule | red/green fluorescence ratio (mitochondrial membrane potential) with BC ([1]; BC pretreatment, then KM, AK or GM, JC-1, n=3 per group, *P<0.05 and **P<0.01) | statistical significance of protective effect on mitochondrial membrane potential ([1]; BC pretreatment, then KM, AK or GM, n=3 per group, *P<0.05 and **P<0.01) | decrease of MitoSOX Red fluorescence intensity (mitochondrial ROS) ([2]; BC pretreatment, then KM, AK or GM) | statistical significance of reduced integrated density of red fluorescence ([2]; BC treatment group versus AK, KM, and GM groups) | reduction of antibiotic-induced hair cell damage (surviving hair cells) ([3]; BC pretreatment (0.1 μM for KM, 1 μM for AK and GM), IHC and OHC, apical, middle and basal turns) | cytotoxicity of BC to IHC and OHC ([3]; BC, cochlear explants) | protection against stereocilia degeneration and hair cell loss ([4]; 0.1 or 1 μM BC for 1 hour before antibiotic (KM, AK, or GM), apical, middle, basal regions) | reduction of apoptotic DNA fragmentation (TUNEL labeling) ([6]; BC pretreatment compared with KM, AK, or GM treatment) | red/green fluorescence ratio (mitochondrial membrane potential) after antibiotic treatment ([1]; JC-1) | IHC survival / cytotoxicity to IHC [3] | hair cell morphology / damage after antibiotic treatment [4] | level of cleaved caspase-3 after antibiotic treatment [5] | apoptotic DNA fragmentation / cell death induced by antibiotic [6] | relative severity of damage, OHC versus IHC [4]
reduced cleaved caspase-3 | COc1ccc2cc3[n+](cc2c1OC)CCc1cc2c(cc1-3)OCO2 [BC, berberine chloride] | red/green fluorescence ratio was found to increase | statistically significant | significant decrease in fluorescence intensity | statistically significant compared to the AK, KM, and GM groups | antibiotic-induced damage was reduced to near-normal levels | no detrimental effects on IHC or OHC | alleviated stereocilia degeneration and hair cell loss in all cochlear regions | significant reduction by BC pretreatment to near control levels | – | – | – | – | – | –
– | NCC[C@H](O)C(=O)N[C@@H]1C[C@H](N)[C@@H](O[C@H]2O[C@H](CN)[C@@H](O)[C@H](O)[C@H]2O)[C@H](O)[C@H]1O[C@H]1O[C@H](CO)[C@@H](O)[C@H](N)[C@H]1O [AK, amikacin] | – | – | – | – | – | – | – | – | significant decrease in the red/green ratio along with a loss of red signal | virtually destroyed | most of their cilia disintegrated and lost, making them unrecognizable | significantly increased levels of cleaved caspase-3 compared to untreated controls | resulted in cell death | –
– | gentamicin [GM] | – | – | – | – | – | – | – | – | significant decrease in the red/green ratio along with a loss of red signal | more resistant | – | significantly increased levels of cleaved caspase-3 compared to untreated controls | resulted in cell death | caused more severe damage to OHCs than IHCs, with loss of hair cells
– | NC[C@H]1O[C@H](O[C@H]2[C@H](O)[C@@H](O[C@H]3O[C@H](CO)[C@@H](O)[C@H](N)[C@H]3O)[C@H](N)C[C@@H]2N)[C@H](O)[C@@H](O)[C@@H]1O [KM, kanamycin] | – | – | – | – | – | – | – | – | significant decrease in the red/green ratio along with a loss of red signal | more resistant | not only altered the ciliary morphology of hair cells but also disrupted cell arrangement, with induction of cell loss in a complex manner | significantly increased levels of cleaved caspase-3 compared to untreated controls | resulted in cell death | more severe in OHC than in IHC
